In experiment [1] the target is T1, ENPP1 (Homo sapiens (Human), UniProt P22413). Put plainly: ATP-Glo enzymatic assay (ATP substrate, AMP-Glo readout). The following applies: 25° C. for 60 min, 50 mM Tris pH 8.8. The format is biochemical. The method, then: (§1) Example A: Enzymatic Assay
(§2) • 1. Diluted compounds in DMSO by hand for 11 points, 3 folds dilution. Then transferred 0.02 μL compounds to 384 assay plate by ECHO. • 2. Added 2 μL specified concentration of ENPP1 to 384 assay plate. Centrifuged 1000 RPM for 1 min. • 3. Added 2 μL specified concentration of ATP to the assay plate. Centrifuged 1000 RPM for 1 min. • 4. Incubated at 25° C. for 60 min. • 5. Added 4 μL AMP-Glo Reagent to the assay plates. • 6. Centrifuged 1000 RPM for 1 min, incubate at 25° C. for 1 hours. • 7. Added 8 μL Kinase Detection Reagent to the assay plates. • 8. Centrifuged 1000 RPM for 1 min, incubated at 25° C. for 1 hours. The final assay reaction mixture contained a buffer of 50 mM Tris pH 8.8, 250 mM NaCl and 0.1% BSA • 9. Read on Envision for US LUM as RLU. • 10. Analyzed the raw data using the equation (V. Data analysis). cGAMP-Glo Assay: • 1. Diluted compounds in DMSO by hand for 11 points, 3 folds dilution. Then transferred 0.02 μL compounds to 384 assay plate by ECHO. • 2. Added 2 μL specified concentration of ENPP1 to 384 assay plate, centrifuged 1000 RPM for 1 min. • 3. Added 2 μL specified concentration of 2′3′-cGAMP to the assay plate, centrifuged 1000 RPM for 1 min. • 4. Incubated at 25° C. for 60 min. • 5. Added 4 μL AMP-Glo Reagent to the assay plates. • 6. Centrifuged 1000 RPM for 1 min, incubated at 25° C. for 1 hours. • 7. Added 8 μL Kinase Detection Reagent to the assay plates. • 8. Centrifuged 1000 RPM for 1 min, incubate at 25° C. for 1 hours. The final assay reaction mixture contained a buffer of 50 mM Tris pH 8.8, 250 mM NaCl and 0.1% BSA • 9. Read on Envision for US LUM as RLU. • 10. Analyzed the raw data using the equation (V. Data analysis).

The target of experiment [2] is T1, ENPP1. Put plainly: cGAMP-Glo enzymatic assay (2′3′-cGAMP substrate, AMP-Glo readout). The format is biochemical. The following applies: substrate 2′3′-cGAMP; 25° C. for 60 min; 50 mM Tris pH 8.8. How it is done:
as §1, §2

Usually IC50 stands for the concentration at which inhibition is half-maximal.

A value given as a limit tells only on which side of the number the result lay.

T1 sequence (P22413 whole entry, species assumed): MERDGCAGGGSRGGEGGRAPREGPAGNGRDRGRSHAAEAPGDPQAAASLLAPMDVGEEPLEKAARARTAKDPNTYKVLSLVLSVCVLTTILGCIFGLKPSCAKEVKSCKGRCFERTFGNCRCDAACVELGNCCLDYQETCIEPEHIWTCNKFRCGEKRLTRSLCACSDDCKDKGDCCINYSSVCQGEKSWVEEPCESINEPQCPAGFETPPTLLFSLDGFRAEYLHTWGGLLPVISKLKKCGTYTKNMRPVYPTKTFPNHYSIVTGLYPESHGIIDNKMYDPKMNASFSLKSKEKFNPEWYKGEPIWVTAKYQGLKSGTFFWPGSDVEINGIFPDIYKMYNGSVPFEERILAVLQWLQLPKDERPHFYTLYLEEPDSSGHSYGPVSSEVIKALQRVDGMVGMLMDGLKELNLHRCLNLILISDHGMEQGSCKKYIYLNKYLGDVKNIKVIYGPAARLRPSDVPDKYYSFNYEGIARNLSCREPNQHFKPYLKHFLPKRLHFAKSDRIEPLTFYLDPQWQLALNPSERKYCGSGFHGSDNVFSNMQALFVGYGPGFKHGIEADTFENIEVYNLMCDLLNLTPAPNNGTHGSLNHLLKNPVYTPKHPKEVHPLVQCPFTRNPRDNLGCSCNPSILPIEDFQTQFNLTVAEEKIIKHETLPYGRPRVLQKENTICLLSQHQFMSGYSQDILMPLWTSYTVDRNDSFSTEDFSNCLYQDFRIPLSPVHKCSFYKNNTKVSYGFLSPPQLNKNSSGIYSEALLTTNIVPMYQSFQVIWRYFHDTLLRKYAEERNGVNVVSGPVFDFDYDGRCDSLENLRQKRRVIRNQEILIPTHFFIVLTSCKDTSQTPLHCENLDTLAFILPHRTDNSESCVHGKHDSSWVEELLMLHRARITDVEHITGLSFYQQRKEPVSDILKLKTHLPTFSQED

Regarding `COc1ncc2c(C)cn(Cc3ccc(S(N)(=O)=O)cc3)c2c1-c1ccn(C)n1` [Example 6, 4-((6-methoxy-3-methyl-7-(1-methyl-1H-pyrazol-3-yl)-1H-pyrrolo[3,2-c]pyridin-1-yl)methyl)benzenesulfonamide], the IC50 in experiment [1] and in experiment [2] was 1 to 10 nM in each case.
For `Cc1ncc2nc(C(F)F)n(Cc3ccc(S(N)(=O)=O)cn3)c2c1-c1ccccc1` [Example 71], the IC50 in experiment [1] and in experiment [2] was less than 1 nM in each case.
For `Cc1ncc2nc(C(F)F)n(Cc3c(F)cc(S(N)(=O)=O)cc3F)c2c1-c1ccccc1` [Example 38, 4-((2-(difluoromethyl)-6-methyl-7-phenyl-1H-imidazo[4,5-c]pyridin-1-yl)methyl)-3,5-difluorobenzenesulfonamide], the IC50 in experiment [1] and in experiment [2] was less than 1 nM each time.
Take `Cc1ncc2nc(CF)n(Cc3c(F)cc(S(N)(=O)=O)cc3F)c2c1-c1ccccc1` [Example 47, 3,5-difluoro-4-((2-(fluoromethyl)-6-methyl-7-phenyl-1H-imidazo[4,5-c]pyridin-1-yl)methyl)benzenesulfonamide]: the IC50 in experiment [1] and in experiment [2] was less than 1 nM throughout.
For `Cc1nc2cnc(OC(F)F)c(-c3ccccc3)c2n1Cc1ccc(S(N)(=O)=O)cc1` [Example 33, 4-((6-(difluoromethoxy)-2-methyl-7-phenyl-1H-imidazo[4,5-c]pyridin-1-yl)methyl)benzenesulfonamide], the IC50 in experiment [1] and in experiment [2] was less than 1 nM in each case.
In the case of `COc1ncc2nc(C(F)(F)F)n(Cc3ccc(S(N)(=O)=O)cn3)c2c1-c1ccccc1` [Example 77], the IC50 in experiment [1] and in experiment [2] was less than 1 nM in each case.
For `COc1ncc2nc(C)n(Cc3ccc(S(N)(=O)=O)cn3)c2c1-c1ccccc1` [Example 74, 6-((6-methoxy-2-methyl-7-phenyl-1H-imidazo[4,5-c]pyridin-1-yl)methyl)pyridine-3-sulfonamide], the IC50 in experiment [1] and in experiment [2] was less than 1 nM in each case.
Take `Cc1ncc2nc(C3CC3)n(Cc3c(F)cc(S(N)(=O)=O)cc3F)c2c1-c1ccccc1` [Example 39, 4-((2-cyclopropyl-6-methyl-7-phenyl-1H-imidazo[4,5-c]pyridin-1-yl)methyl)-3,5-difluorobenzenesulfonamide]: the IC50 in experiment [1] and in experiment [2] was less than 1 nM in each case.
For `Cc1ccccc1-c1c(C)ncc2ncn(Cc3c(F)cc(S(N)(=O)=O)cc3F)c12` [Example 28, 3,5-difluoro-4-((6-methyl-7-(o-tolyl)-1H-imidazo[4,5-c]pyridin-1-yl)methyl)benzene sulfonamide], the IC50 in experiment [1] and in experiment [2] was 10 to 100 nM each time.
Consider `COc1ncc2nc(C)n(Cc3ncc(S(N)(=O)=O)cc3F)c2c1-c1ccccc1` [Example 73, 5-fluoro-6-((6-methoxy-2-methyl-7-phenyl-1H-imidazo[4,5-c]pyridin-1-yl)methyl)pyridine-3-sulfonamide], for which the IC50 in experiment [1] and in experiment [2] was less than 1 nM each time.
Turning to `Cc1ncc2nc(C)n(Cc3c(F)cc(S(N)(=O)=O)cc3F)c2c1-c1ccccc1` [Example 26, 4-((2,6-dimethyl-7-phenyl-1H-imidazo[4,5-c]pyridin-1-yl)methyl)-3,5-difluorobenzenesulfonamide], the IC50 in experiment [1] and in experiment [2] was less than 1 nM throughout.
Take `Cc1ncc2nc(C)n(Cc3c(F)cc(S(N)(=O)=O)cc3F)c2c1-c1ccc(F)cc1` [Example 46, 3,5-difluoro-4-((7-(4-fluorophenyl)-2,6-dimethyl-1H-imidazo[4,5-c]pyridin-1-yl)methyl)benzenesulfonamide]: the IC50 in experiment [1] and in experiment [2] was less than 1 nM in each case.
On to `Cc1ncc2nc(C)n(Cc3ccc(OS(N)(=O)=O)cc3)c2c1-c1ccccc1` [Example 37], for which the IC50 in experiment [1] and in experiment [2] was less than 1 nM each time.
Turning to `Cc1ncc2nc(CN(C)C)n(Cc3c(F)cc(S(N)(=O)=O)cc3F)c2c1-c1ccccc1` [Example 49], the IC50 in experiment [1] and in experiment [2] was less than 1 nM each time.
As for `COc1ncc2ccn(Cc3ccc(S(N)(=O)=O)cc3)c2c1-c1ccn(C)n1` [Example 5, 4-((6-methoxy-7-(1-methyl-1H-pyrazol-3-yl)-1H-pyrrolo[3,2-c]pyridin-1-yl)methyl)benzenesulfonamide], the figures for the IC50 in experiment [1] and in experiment [2] were 10 to 100 nM and 1 to 10 nM, respectively.
As for `Cc1ncc2c(c1-c1ccccc1)n(Cc1ncc(S(N)(=O)=O)cc1F)c(=O)n2C` [Example 79, 6-((3,6-dimethyl-2-oxo-7-phenyl-2,3-dihydro-1H-imidazo[4,5-c]pyridin-1-yl)methyl)-5-fluoropyridine-3-sulfonamide], the half-maximal inhibitory concentration (IC50) in experiment [1] and in experiment [2] was less than 1 nM throughout.
Take `Cc1ncc2c(c1C1=CCCC1)n(Cc1c(F)cc(S(N)(=O)=O)cc1F)c(=O)n2C` [Example 62, 4-((7-(cyclopent-1-en-1-yl)-3,6-dimethyl-2-oxo-2,3-dihydro-1H-imidazo[4,5-c]pyridin-1-yl)methyl)-3,5-difluorobenzenesulfonamide]: the IC50 in experiment [1] and in experiment [2] was less than 1 nM in each case.
As to `COc1ncc2nc(C(F)F)n(Cc3ccc(S(N)(=O)=O)cn3)c2c1-c1ccccc1` [Example 75, 6-((2-(difluoromethyl)-6-methoxy-7-phenyl-1H-imidazo[4,5-c]pyridin-1-yl)methyl)pyridine-3-sulfonamide], the IC50 in experiment [1] and in experiment [2] was less than 1 nM in each case.
Consider `CC#Cc1c(C)ncc2nc(C)n(Cc3c(F)cc(S(N)(=O)=O)cc3F)c12` [Example 64, 4-((2,6-dimethyl-7-(prop-1-yn-1-yl)-1H-imidazo[4,5-c]pyridin-1-yl)methyl)-3,5-difluorobenzenesulfonamide], for which the IC50 in experiment [1] and in experiment [2] was less than 1 nM throughout.
Regarding `Cc1ncc2c(C)cn(Cc3c(F)cc(S(N)(=O)=O)cc3F)c2c1-c1ccn(C)n1` [Example 17, 4-((3,6-dimethyl-7-(1-methyl-1H-pyrazol-3-yl)-1H-pyrrolo[3,2-c]pyridin-1-yl)methyl)-3,5-difluorobenzenesulfonamide], the IC50 in experiment [1] and in experiment [2] was 1 to 10 nM in each case.
As for `COc1ncc2nc(C(F)(F)F)n(Cc3ncc(S(N)(=O)=O)cc3F)c2c1-c1ccccc1` [Example 78, 5-fluoro-6-((6-methoxy-7-phenyl-2-(trifluoromethyl)-1H-imidazo[4,5-c]pyridin-1-yl)methyl)pyridine-3-sulfonamide], the IC50 in experiment [1] and in experiment [2] was less than 1 nM throughout.
`Cc1ncc2nc(C)n(Cc3ccc(S(N)(=O)=O)cn3)c2c1-c1ccccc1` [Example 65, 6-((2,6-dimethyl-7-phenyl-1H-imidazo[4,5-c]pyridin-1-yl)methyl)pyridine-3-sulfonamide]: the IC50 in experiment [1] and in experiment [2] was less than 1 nM each time.
In the case of `Cc1cc(Cn2c(C3CC3)nc3cnc(C)c(-c4ccccc4)c32)ccc1S(N)(=O)=O` [Example 55, 4-((2-cyclopropyl-6-methyl-7-phenyl-1H-imidazo[4,5-c]pyridin-1-yl)methyl)-2-methylbenzenesulfonamide], the IC50 in experiment [1] and in experiment [2] was less than 1 nM throughout.
As to `COc1ncc2c(c1-c1ccccc1)n(Cc1ccc(S(N)(=O)=O)cc1)c(=O)n2C` [Example 19, 4-[(6-methoxy-3-methyl-2-oxo-7-phenylimidazo[5,4-c]pyridin-1-yl)methyl]benzene-1-sulfonamide], the IC50 in experiment [1] and in experiment [2] was less than 1 nM in each case.
Regarding `COc1ncc2ccn(Cc3ccc(S(N)(=O)=O)cc3)c2c1-c1cnn(C(F)(F)F)c1` [Example 11, 4-((6-methoxy-7-(1-(trifluoromethyl)-1H-pyrazol-4-yl)-1H-pyrrolo[3,2-c]pyridin-1-yl)methyl)benzenesulfonamide], the IC50 in experiment [1] and in experiment [2] was 100 to 1000 nM in each case.
Regarding `COc1ncc2c(c1-c1ccccc1)n(Cc1c(F)cc(S(N)(=O)=O)cc1F)c(=O)n2C` [Example 56, 3,5-difluoro-4-((6-methoxy-3-methyl-2-oxo-7-phenyl-2,3-dihydro-1H-imidazo[4,5-c]pyridin-1-yl)methyl)benzenesulfonamide], the IC50 in experiment [1] and in experiment [2] was less than 1 nM throughout.
On to `[2H]C([2H])([2H])Oc1ncc2nc(C(F)F)n(Cc3ncc(S(N)(=O)=O)cc3F)c2c1-c1ccccc1` [Example 86, 6-((2-(difluoromethyl)-6-(methoxy-d3)-7-phenyl-1H-imidazo[4,5-c]pyridin-1-yl)methyl)-5-fluoropyridine-3-sulfonamide], for which the IC50 in experiment [1] and in experiment [2] was less than 1 nM each time.
